Test results taken from ChEMBL document CHEMBL3885861, “Open TG-GATES”.

Species: Rattus norvegicus
Experiment: Open TG-GATES - Regimen: Single
Assay type: toxicity, organism-based, Sprague-Dawley
Set-up: regimen Single, gender Male, age 6 weeks
Details: in vivo, po, route gavage; for APTT / Bas / Eos / Fbg / Hb / Ht / Lym / MCH / MCHC / MCV / Mono / Neu / PT / Plat / RBC / Ret / WBC: tissue Blood; for KIDNEY_L / KIDNEY_R / KIDNEY_TOTAL: tissue Kidney; for LIVER: tissue Liver; for ALP / ALT / AST / BUN / CRE / Ca / Cl / DBIL / GLC / IP / K / LDH / Na / PL / RALB / TBIL / TC / TG / TP / gamma-GTP: tissue Plasma
[1] = 300 mg/kg, 3 h, dose level Middle
[2] = 300 mg/kg, 6 h, dose level Middle
[3] = 300 mg/kg, 9 h, dose level Middle
[4] = 300 mg/kg, 24 h, dose level Middle
[5] = 1000 mg/kg, 3 h, dose level High
[6] = 1000 mg/kg, 6 h, dose level High
[7] = 1000 mg/kg, 9 h, dose level High
[8] = 1000 mg/kg, 24 h, dose level High

COC(=O)C1=C(C)NC(C)=C(C(=O)OC)C1c1ccccc1[N+](=O)[O-] [NIFEDIPINE]
APTT [1]: 16.6 s
Bas [1]: 0.2%
Eos [1]: 0.6%
Fbg [1]: 299.2 mg/dL
Hb [1]: 12.8 g/dL
Ht [1]: 39.1%
Lym [1]: 75.2%
MCH [1]: 21 pg
MCHC [1]: 32.9%
MCV [1]: 63.8 fL
Mono [1]: 3.8%
Neu [1]: 19.8%
PT [1]: 15.1 s
Plat [1]: 126.5 x10_4/uL
RBC [1]: 613 x10_4/ul
Ret [1]: 9.4%
WBC [1]: 113.9 x10_2/uL
KIDNEY_L [1]: 0.9 g
KIDNEY_R [1]: 0.9 g
KIDNEY_TOTAL [1]: 1.8 g
LIVER [1]: 8.1 g
ALP [1]: 1571 IU/L
ALT [1]: 46.2 IU/L
AST [1]: 74.8 IU/L
BUN [1]: 27.6 mg/dL
CRE [1]: 0.3 mg/dL
Ca [1]: 11.6 mg/dL
Cl [1]: 96.8 meq/L
DBIL [1]: 0.01 mg/dL
GLC [1]: 263.6 mg/dL
IP [1]: 9.5 mg/dL
K [1]: 4.7 meq/L
LDH [1]: 85 IU/L
Na [1]: 134.6 meq/L
PL [1]: 135.4 mg/dL
RALB [1]: 2.6 g/dL
TBIL [1]: 0.034 mg/dL
TC [1]: 84.2 mg/dL
TG [1]: 33.6 mg/dL
TP [1]: 5.3 g/dL
gamma-GTP [1]: 1 IU/L
TERMINAL_BW [2]: 205.3 g
APTT [2]: 16.3 s
Bas [2]: 0%
Eos [2]: 0.6%
Fbg [2]: 293.2 mg/dL
Hb [2]: 13.1 g/dL
Ht [2]: 40%
Lym [2]: 75%
MCH [2]: 20.7 pg
MCHC [2]: 32.6%
MCV [2]: 63.5 fL
Mono [2]: 3.8%
Neu [2]: 19.8%
PT [2]: 14.9 s
Plat [2]: 123.8 x10_4/uL
RBC [2]: 632 x10_4/ul
Ret [2]: 10%
WBC [2]: 101.9 x10_2/uL
KIDNEY_L [2]: 0.9 g
KIDNEY_R [2]: 0.9 g
KIDNEY_TOTAL [2]: 1.8 g
LIVER [2]: 7.9 g
ALP [2]: 1503.6 IU/L
ALT [2]: 51.2 IU/L
AST [2]: 78.8 IU/L
BUN [2]: 32.2 mg/dL
CRE [2]: 0.2 mg/dL
Ca [2]: 11.3 mg/dL
Cl [2]: 97.6 meq/L
DBIL [2]: 0.006 mg/dL
GLC [2]: 221.4 mg/dL
IP [2]: 10.7 mg/dL
K [2]: 5.1 meq/L
LDH [2]: 78.8 IU/L
Na [2]: 136.6 meq/L
PL [2]: 150.4 mg/dL
RALB [2]: 2.6 g/dL
TBIL [2]: 0.042 mg/dL
TC [2]: 90.6 mg/dL
TG [2]: 19.4 mg/dL
TP [2]: 5.5 g/dL
gamma-GTP [2]: 1.2 IU/L
TERMINAL_BW [3]: 206.1 g
APTT [3]: 17.3 s
Bas [3]: 0%
Eos [3]: 0.6%
Fbg [3]: 288 mg/dL
Hb [3]: 13.1 g/dL
Ht [3]: 39.7%
Lym [3]: 78.2%
MCH [3]: 21 pg
MCHC [3]: 33%
MCV [3]: 63.7 fL
Mono [3]: 3.6%
Neu [3]: 16.4%
PT [3]: 14.6 s
Plat [3]: 124.2 x10_4/uL
RBC [3]: 623 x10_4/ul
Ret [3]: 9.8%
WBC [3]: 94.7 x10_2/uL
KIDNEY_L [3]: 0.9 g
KIDNEY_R [3]: 0.9 g
KIDNEY_TOTAL [3]: 1.8 g
LIVER [3]: 7.3 g
ALP [3]: 1317.2 IU/L
ALT [3]: 51.2 IU/L
AST [3]: 76.6 IU/L
BUN [3]: 26.8 mg/dL
CRE [3]: 0.2 mg/dL
Ca [3]: 10.9 mg/dL
Cl [3]: 100.8 meq/L
DBIL [3]: 0.01 mg/dL
GLC [3]: 193.4 mg/dL
IP [3]: 11.1 mg/dL
K [3]: 5 meq/L
LDH [3]: 72.4 IU/L
Na [3]: 137.4 meq/L
PL [3]: 156.4 mg/dL
RALB [3]: 2.5 g/dL
TBIL [3]: 0.046 mg/dL
TC [3]: 91 mg/dL
TG [3]: 28.2 mg/dL
TP [3]: 5.4 g/dL
gamma-GTP [3]: 1 IU/L
TERMINAL_BW [4]: 198.5 g
APTT [4]: 16.6 s
Bas [4]: 0%
Eos [4]: 1%
Fbg [4]: 298.6 mg/dL
Hb [4]: 13.1 g/dL
Ht [4]: 40%
Lym [4]: 67%
MCH [4]: 20.4 pg
MCHC [4]: 32.7%
MCV [4]: 62.2 fL
Mono [4]: 3.6%
Neu [4]: 27%
PT [4]: 14.1 s
Plat [4]: 128.1 x10_4/uL
RBC [4]: 643.8 x10_4/ul
Ret [4]: 9%
WBC [4]: 95.9 x10_2/uL
KIDNEY_L [4]: 0.9 g
KIDNEY_R [4]: 0.9 g
KIDNEY_TOTAL [4]: 1.7 g
LIVER [4]: 7.8 g
ALP [4]: 1579.6 IU/L
ALT [4]: 43.8 IU/L
AST [4]: 68.4 IU/L
BUN [4]: 12 mg/dL
CRE [4]: 0.2 mg/dL
Ca [4]: 10.6 mg/dL
Cl [4]: 107.4 meq/L
DBIL [4]: 0.012 mg/dL
GLC [4]: 160.4 mg/dL
IP [4]: 8.3 mg/dL
K [4]: 3.9 meq/L
LDH [4]: 73.8 IU/L
Na [4]: 145 meq/L
PL [4]: 133.6 mg/dL
RALB [4]: 2.8 g/dL
TBIL [4]: 0.042 mg/dL
TC [4]: 77.8 mg/dL
TG [4]: 41.2 mg/dL
TP [4]: 5.8 g/dL
gamma-GTP [4]: 0.8 IU/L
TERMINAL_BW [5]: 207.9 g
APTT [5]: 16.6 s
Bas [5]: 0%
Eos [5]: 1%
Fbg [5]: 285.2 mg/dL
Hb [5]: 13 g/dL
Ht [5]: 39.9%
Lym [5]: 69.8%
MCH [5]: 20.8 pg
MCHC [5]: 32.6%
MCV [5]: 63.8 fL
Mono [5]: 4.6%
Neu [5]: 24.2%
PT [5]: 14.9 s
Plat [5]: 122.2 x10_4/uL
RBC [5]: 626 x10_4/ul
Ret [5]: 9.7%
WBC [5]: 108.1 x10_2/uL
KIDNEY_L [5]: 0.9 g
KIDNEY_R [5]: 0.9 g
KIDNEY_TOTAL [5]: 1.9 g
LIVER [5]: 8.4 g
ALP [5]: 1381.2 IU/L
ALT [5]: 51 IU/L
AST [5]: 74.8 IU/L
BUN [5]: 26.2 mg/dL
CRE [5]: 0.2 mg/dL
Ca [5]: 11.8 mg/dL
Cl [5]: 97.2 meq/L
DBIL [5]: 0.008 mg/dL
GLC [5]: 260.8 mg/dL
IP [5]: 9.2 mg/dL
K [5]: 5 meq/L
LDH [5]: 99.4 IU/L
Na [5]: 134.8 meq/L
PL [5]: 141.4 mg/dL
RALB [5]: 2.5 g/dL
TBIL [5]: 0.036 mg/dL
TC [5]: 81.6 mg/dL
TG [5]: 46.4 mg/dL
TP [5]: 5.2 g/dL
gamma-GTP [5]: 1.6 IU/L
TERMINAL_BW [6]: 205.1 g
APTT [6]: 16.5 s
Bas [6]: 0.2%
Eos [6]: 0.4%
Fbg [6]: 282.6 mg/dL
Hb [6]: 13 g/dL
Ht [6]: 39.6%
Lym [6]: 77%
MCH [6]: 20.6 pg
MCHC [6]: 32.8%
MCV [6]: 62.7 fL
Mono [6]: 3.6%
Neu [6]: 18%
PT [6]: 14.9 s
Plat [6]: 123.3 x10_4/uL
RBC [6]: 632.4 x10_4/ul
Ret [6]: 9.2%
WBC [6]: 92.1 x10_2/uL
KIDNEY_L [6]: 0.9 g
KIDNEY_R [6]: 0.9 g
KIDNEY_TOTAL [6]: 1.9 g
LIVER [6]: 7.3 g
ALP [6]: 1242.8 IU/L
ALT [6]: 50.6 IU/L
AST [6]: 83 IU/L
BUN [6]: 40.2 mg/dL
CRE [6]: 0.2 mg/dL
Ca [6]: 11 mg/dL
Cl [6]: 97.2 meq/L
DBIL [6]: 0.008 mg/dL
GLC [6]: 229.6 mg/dL
IP [6]: 11 mg/dL
K [6]: 5 meq/L
LDH [6]: 81 IU/L
Na [6]: 136.4 meq/L
PL [6]: 148.2 mg/dL
RALB [6]: 2.6 g/dL
TBIL [6]: 0.052 mg/dL
TC [6]: 90.2 mg/dL
TG [6]: 16.4 mg/dL
TP [6]: 5.4 g/dL
gamma-GTP [6]: 1 IU/L
TERMINAL_BW [7]: 206.6 g
APTT [7]: 16.7 s
Bas [7]: 0.4%
Eos [7]: 0.4%
Fbg [7]: 287 mg/dL
Hb [7]: 13.2 g/dL
Ht [7]: 39.8%
Lym [7]: 74%
MCH [7]: 20.8 pg
MCHC [7]: 33.3%
MCV [7]: 62.5 fL
Mono [7]: 4.8%
Neu [7]: 19.2%
PT [7]: 14.6 s
Plat [7]: 123.6 x10_4/uL
RBC [7]: 637 x10_4/ul
Ret [7]: 9.7%
WBC [7]: 96.3 x10_2/uL
KIDNEY_L [7]: 0.9 g
KIDNEY_R [7]: 0.9 g
KIDNEY_TOTAL [7]: 1.7 g
LIVER [7]: 7.1 g
ALP [7]: 1341 IU/L
AST [7]: 75.2 IU/L
BUN [7]: 41.8 mg/dL
CRE [7]: 0.2 mg/dL
Ca [7]: 10.8 mg/dL
Cl [7]: 96.4 meq/L
DBIL [7]: 0.008 mg/dL
GLC [7]: 217.4 mg/dL
IP [7]: 11.9 mg/dL
K [7]: 5.3 meq/L
LDH [7]: 85 IU/L
Na [7]: 134.6 meq/L
PL [7]: 152.4 mg/dL
RALB [7]: 2.6 g/dL
TBIL [7]: 0.052 mg/dL
TC [7]: 90.8 mg/dL
TG [7]: 22.2 mg/dL
TP [7]: 5.5 g/dL
gamma-GTP [7]: 1.4 IU/L
TERMINAL_BW [8]: 197.1 g
APTT [8]: 17.4 s
Bas [8]: 0.2%
Eos [8]: 0.8%
Fbg [8]: 374 mg/dL
Hb [8]: 13.1 g/dL
Ht [8]: 39.6%
Lym [8]: 72.8%
MCH [8]: 20.9 pg
MCHC [8]: 33.1%
MCV [8]: 63.3 fL
Mono [8]: 3.6%
Neu [8]: 22%
PT [8]: 13.7 s
Plat [8]: 142.3 x10_4/uL
RBC [8]: 625.8 x10_4/ul
Ret [8]: 9.7%
WBC [8]: 99.5 x10_2/uL
KIDNEY_L [8]: 0.8 g
KIDNEY_R [8]: 0.9 g
KIDNEY_TOTAL [8]: 1.7 g
LIVER [8]: 6.9 g
ALP [8]: 1549.8 IU/L
ALT [8]: 40.6 IU/L
AST [8]: 67.8 IU/L
BUN [8]: 10.8 mg/dL
CRE [8]: 0.2 mg/dL
Ca [8]: 10.4 mg/dL
Cl [8]: 106 meq/L
DBIL [8]: 0.012 mg/dL
GLC [8]: 167 mg/dL
IP [8]: 8.6 mg/dL
K [8]: 3.8 meq/L
LDH [8]: 78.2 IU/L
Na [8]: 143 meq/L
PL [8]: 126.4 mg/dL
RALB [8]: 2.9 g/dL
TBIL [8]: 0.054 mg/dL
TC [8]: 78 mg/dL
TG [8]: 27 mg/dL
TP [8]: 6.1 g/dL
gamma-GTP [8]: 1 IU/L
